Reference: ChEMBL document CHEMBL3232969, “Structure-based design and synthesis of tricyclic IAP (Inhibitors of Apoptosis Proteins) inhibitors” (Bioorg Med Chem Lett, 2014)

How the values were obtained:
MDA-MB-231 = test: Growth inhibition of human MDA-MB-231 cells; type: functional
[1] = (§1) Percentage unbound in human plasma; conditions: Fu
Liver microsome = test: Intrinsic clearance in human liver microsomes; conditions: microsomes
[2] = Lipophilicity, log D of the compound; conditions: octanol/water
[3] = Aqueous solubility of the compound
Plasma = test: as §1
[4] = Intrinsic clearance in rat microsomes; type: ADME, Microsome
[5] = biological target: Voltage-gated inwardly rectifying potassium channel KCNH2 (Homo sapiens, UniProt Q12809); test: Inhibition of human ERG
Voltage-gated inwardly rectifying potassium channel KCNH2, sequence (Q12809 whole entry): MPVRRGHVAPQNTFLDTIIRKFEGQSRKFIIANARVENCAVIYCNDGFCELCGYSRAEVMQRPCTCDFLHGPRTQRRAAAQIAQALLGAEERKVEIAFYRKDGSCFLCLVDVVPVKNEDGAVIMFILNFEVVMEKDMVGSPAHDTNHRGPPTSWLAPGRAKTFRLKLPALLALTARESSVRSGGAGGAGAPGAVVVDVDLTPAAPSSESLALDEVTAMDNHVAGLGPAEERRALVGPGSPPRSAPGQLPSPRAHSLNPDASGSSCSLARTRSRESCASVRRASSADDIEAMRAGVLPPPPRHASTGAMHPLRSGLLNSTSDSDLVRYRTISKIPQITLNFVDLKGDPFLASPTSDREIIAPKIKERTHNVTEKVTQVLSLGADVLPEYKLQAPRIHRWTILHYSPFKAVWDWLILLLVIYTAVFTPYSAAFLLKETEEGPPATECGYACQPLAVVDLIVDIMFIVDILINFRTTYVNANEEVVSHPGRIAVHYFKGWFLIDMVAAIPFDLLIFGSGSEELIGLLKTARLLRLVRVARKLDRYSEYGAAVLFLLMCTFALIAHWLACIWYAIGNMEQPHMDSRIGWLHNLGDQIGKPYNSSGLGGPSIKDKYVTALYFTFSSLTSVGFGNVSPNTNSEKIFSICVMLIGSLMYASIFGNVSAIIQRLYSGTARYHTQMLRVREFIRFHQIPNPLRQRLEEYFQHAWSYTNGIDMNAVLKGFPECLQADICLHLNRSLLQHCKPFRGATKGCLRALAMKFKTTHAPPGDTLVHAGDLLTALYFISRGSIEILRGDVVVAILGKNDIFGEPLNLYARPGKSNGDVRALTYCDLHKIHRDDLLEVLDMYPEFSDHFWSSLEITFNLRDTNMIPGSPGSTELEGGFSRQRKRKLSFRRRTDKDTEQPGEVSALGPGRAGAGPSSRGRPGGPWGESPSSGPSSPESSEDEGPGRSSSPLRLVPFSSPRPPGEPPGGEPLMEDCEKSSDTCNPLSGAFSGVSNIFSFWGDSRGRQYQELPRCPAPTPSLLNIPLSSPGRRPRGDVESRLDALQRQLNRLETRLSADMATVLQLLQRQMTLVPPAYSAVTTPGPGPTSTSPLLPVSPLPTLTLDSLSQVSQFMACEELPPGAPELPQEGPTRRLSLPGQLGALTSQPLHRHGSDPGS

[6] = Inhibition of Cytochrome P450 (unknown origin); type: ADME; conditions: human

GI50 (MDA-MB-231) [µM] | fraction unbound [1] | CLH (Liver microsome) [µL/min/mg] | logD ([2]; logD) | solubility [3] [µM] | Fu (Plasma) [%] | logD [2] | microsomal CLint [4] [µL/min/mg] | INH [6] [µM] | SMILES | INH [5] [µM]
3.7 | 0.14 | 23 | 0.6 | > 1000 |  |  |  |  | C#CCOCC(C(=O)N1CC[C@@H]2C[C@@H]3CCC[C@H](NC(=O)[C@H](C)NC)C(=O)N3[C@@H]2C1)c1ccccc1 (stereo in doubt; 42) | 
> 11 |  | 8.5 |  |  | 17 | 0.8 |  |  | C#CCOCC(C(=O)N1CC[C@@H]2C[C@@H]3CCC[C@H](NC(=O)[C@H](C)NC)C(=O)N3[C@@H]2C1)c1ccccc1 (stereo in doubt; 43) | 
0.01 | 0.051 |  | 1.8 | > 1000 |  |  | 7 | > 20 | CN[C@@H](C)C(=O)N[C@H]1CCC[C@H]2C[C@H]3CCN(C(=O)C(OCC#CC#CCOC(C(=O)N4CC[C@@H]5C[C@@H]6CCC[C@H](NC(=O)[C@H](C)NC)C(=O)N6[C@@H]5C4)c4ccccc4)c4ccccc4)C[C@H]3N2C1=O (stereo in doubt; 53) | > 33
